Assay [1] deals with KOR (human κ-opioid receptor, PDSP binding) (Homo sapiens, UniProt P41145). Kind of assay: radioligand displacement. As to conditions: n=4. Background: Displacement assays read how much labelled ligand stays bound in the presence of the test substance.
For assay [2], the target named is hMOR (human μ-opioid receptor) (Homo sapiens, UniProt P35372). Nature of the assay: radioligand displacement.
Assay [3] addresses mDOR (mouse δ-opioid receptor) (Mus musculus, UniProt P32300). Nature of the assay: BRET G-protein activation, HEK-293T. The assay is classed as cell-based. Background: In BRET a luciferase serves as donor, and the signal depends on an acceptor being close.
Assay [4] has as its target hDOR (human δ-opioid receptor) (Homo sapiens, UniProt P41143). Kind of assay: radioligand displacement.
Assay [5] has as its target rKOR (rat κ-opioid receptor) (Rattus norvegicus, UniProt P34975). Kind of assay: BRET CAMYEL cAMP assay, HEK-293T. The assay is classed as cell-based.

This is an account of results in article PMC4119213 (Translational Psychiatry, 2014).

In general, Ki refers to the equilibrium dissociation constant of an inhibitor or competing ligand from its target. Usually EC50 stands for the concentration giving half of the maximal effect. A lower EC50 goes with greater potency. By IC50 is commonly meant the midpoint of a concentration-inhibition curve. Lower therefore signals inhibition by little substance.

Structures are written as SMILES. A value given as a limit tells only on which side of the number the result lay.

Chain of mDOR (mouse δ-opioid receptor) (P32300 whole entry): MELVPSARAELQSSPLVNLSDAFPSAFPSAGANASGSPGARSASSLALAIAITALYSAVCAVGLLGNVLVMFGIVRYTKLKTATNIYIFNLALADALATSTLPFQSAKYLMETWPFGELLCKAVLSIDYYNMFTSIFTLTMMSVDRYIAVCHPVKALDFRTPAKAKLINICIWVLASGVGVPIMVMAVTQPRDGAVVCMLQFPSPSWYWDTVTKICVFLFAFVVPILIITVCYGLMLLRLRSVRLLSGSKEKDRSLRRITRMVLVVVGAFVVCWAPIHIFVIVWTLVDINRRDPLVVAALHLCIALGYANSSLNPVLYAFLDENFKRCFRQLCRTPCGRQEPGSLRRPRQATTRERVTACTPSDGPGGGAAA
Chain of hMOR (human μ-opioid receptor) (P35372 whole entry): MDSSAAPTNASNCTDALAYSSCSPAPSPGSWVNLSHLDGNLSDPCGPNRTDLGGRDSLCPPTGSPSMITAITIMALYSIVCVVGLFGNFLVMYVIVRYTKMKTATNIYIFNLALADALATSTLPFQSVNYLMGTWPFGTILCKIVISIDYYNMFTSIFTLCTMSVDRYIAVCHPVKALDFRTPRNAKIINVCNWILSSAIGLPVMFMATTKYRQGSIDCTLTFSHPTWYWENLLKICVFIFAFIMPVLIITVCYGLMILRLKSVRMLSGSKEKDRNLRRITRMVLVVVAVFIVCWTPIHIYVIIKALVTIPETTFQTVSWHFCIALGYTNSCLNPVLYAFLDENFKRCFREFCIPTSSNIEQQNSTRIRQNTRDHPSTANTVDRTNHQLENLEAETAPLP
Chain of KOR (human κ-opioid receptor, PDSP binding) (P41145 whole entry): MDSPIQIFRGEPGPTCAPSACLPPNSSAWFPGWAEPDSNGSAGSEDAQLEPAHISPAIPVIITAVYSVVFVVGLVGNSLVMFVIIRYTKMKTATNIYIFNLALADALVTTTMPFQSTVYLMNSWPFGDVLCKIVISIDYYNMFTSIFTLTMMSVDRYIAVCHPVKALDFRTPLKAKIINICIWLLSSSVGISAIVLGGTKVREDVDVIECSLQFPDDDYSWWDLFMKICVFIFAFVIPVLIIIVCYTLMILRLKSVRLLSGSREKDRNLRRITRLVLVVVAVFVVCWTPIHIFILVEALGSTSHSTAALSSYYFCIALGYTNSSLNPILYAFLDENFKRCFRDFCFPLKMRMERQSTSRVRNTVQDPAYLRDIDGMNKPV
Chain of hDOR (human δ-opioid receptor) (P41143 whole entry): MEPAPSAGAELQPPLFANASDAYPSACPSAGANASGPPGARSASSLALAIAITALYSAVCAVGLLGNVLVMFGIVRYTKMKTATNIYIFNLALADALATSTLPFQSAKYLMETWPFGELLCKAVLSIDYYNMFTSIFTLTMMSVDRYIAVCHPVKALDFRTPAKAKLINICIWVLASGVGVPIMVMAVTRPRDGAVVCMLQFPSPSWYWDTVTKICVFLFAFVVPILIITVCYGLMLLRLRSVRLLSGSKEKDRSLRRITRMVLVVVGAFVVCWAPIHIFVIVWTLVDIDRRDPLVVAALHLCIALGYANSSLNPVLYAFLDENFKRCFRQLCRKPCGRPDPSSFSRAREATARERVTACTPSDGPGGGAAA
Chain of rKOR (rat κ-opioid receptor) (P34975 whole entry): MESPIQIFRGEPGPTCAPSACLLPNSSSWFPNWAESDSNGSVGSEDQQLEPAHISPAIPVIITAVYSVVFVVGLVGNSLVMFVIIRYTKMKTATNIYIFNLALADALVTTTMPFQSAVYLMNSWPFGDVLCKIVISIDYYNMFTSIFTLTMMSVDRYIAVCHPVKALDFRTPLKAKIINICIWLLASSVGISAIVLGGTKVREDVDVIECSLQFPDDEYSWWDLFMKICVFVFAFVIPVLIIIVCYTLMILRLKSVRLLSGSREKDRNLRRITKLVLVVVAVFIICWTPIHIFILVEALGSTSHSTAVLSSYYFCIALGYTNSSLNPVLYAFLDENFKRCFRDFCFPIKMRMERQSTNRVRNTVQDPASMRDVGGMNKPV

Take `CN1c2ccccc2C(NCCCCCCC(=O)O)c2ccc(Cl)cc2S1(=O)=O` (centres unmarked) [tianeptine]: the inhibition constant (Ki) entry was “Kis were determined at MOR, as well as at DOR and KOR” in assay [1]; 383 ± 183 nM in assay [2]; more than 10000 nM in assay [4]. The molecule also came in with a half-maximal effective concentration (EC50) in assay [3] of 14500 ± 6600 nM.

Regarding `Oc1ccc2c3c1O[C@H]1c4[nH]c5c(c4C[C@@]4(O)[C@@H](C2)N(CC2CC2)CC[C@]314)C[C@@]1(O)[C@H]2Cc3ccc(O)c4c3[C@@]1(CCN2CC1CC1)[C@H]5O4` [nor-binaltorphimine], in assay [5], the IC50 was found to be 28.1 ± 27.2 nM.
